Results from patent US11668699B2, “Compositions and methods for determining mechanical properties of cells” (Arizona Board of Regents on Behalf of the University of …, priority 2016, dated 2023).
Read-outs that look alike come from different tables or passages of the source.

Assays:
platelets [1] = assay: Platelet activation assay: cell surface expression of P-selectin by immunofluorescence; type: cell-based, human; details: 0.125 μM thrombin, 10 mins, 37° C.; mean ± standard error, >70 platelets
Description: (§1) Platelet activation level was quantified via cell surface expression of P-selectin utilizing immunohistochemical staining (Hsulin, S. C., et al., A Platelet Membrane-Protein Expressed during Platelet Activation and Secretion-Studies Using a Monoclonal Antibody Specific for Thrombin-Activated Platelets. Journal of Biological Chemistry, 1984. 259(14): p. 9121-9126; Berman, C. L., et al., A Platelet Alpha Granule Membrane-Protein That Is Associated with the Plasma-Membrane after Activation-Characterization and Subcellular-Localization of Platelet Activation Dependent Granule-External Membrane-Protein. Journal of Clinical Investigation, 1986. 78(1): p. […] Platelets were paraformaldehyde fixed (3%, 20 mins) rinsed and incubated (30 min., 37° C.) with FITC Mouse Anti-Human CD62P (50 μl, 1:5 (v/v) dilution in PBS, BD Biosciences, CA) and imaged using fluorescence microscopy. Fluorescence intensity levels were measured following background subtraction. […] Activation of the positive and negative controls was also quantified via the chemically modified prothrombin-based platelet activation state (PAS) assay (Jesty, J. and D. Bluestein, Acetylated prothrombin as a substrate in the measurement of the procoagulant activity of platelets: Elimination of the feedback activation of platelets by thrombin. Analytical Biochemistry, 1999. 272(1): p. 64-70.).

platelets [2] = assay: Chemically modified prothrombin-based platelet activation state (PAS) assay; type: cell-based, human; details: 0.125 μM thrombin, 10 mins, 37° C.
Description: as §1

platelets [3] = details: for Platelet deformation along the axis of maximum extension, normalized to the original length: platelets treated with 0.4% paraformaldehyde, 1 MHz
Description: Gel filtered platelets were prepared as previously described, from whole blood drawn from aspirin and non-steroidal anti-inflammatory medication free volunteers providing informed consent (Sheriff, J., et al., High-shear stress sensitizes platelets to subsequent low-shear conditions. Ann Biomed Eng, 2010. 38(4): p. 1442-50).
A 127 μm-thick hollow polymer spacer was placed on top of the chip to create a fluid chamber and the chip was covered with a coverslip for microscopic observation. All chip glass surfaces were coated with Sigmacote (Sigma-Aldrich, MO, USA) and rinsed with D.I. water to prevent surface-induced platelet activation.
To visualize platelets they were first exposed to Alexa Fluor 594 conjugated wheat germ agglutinin (1 μg/mL, 10 mins, 37° C., Invitrogen, CA). Platelets were then diluted 100-200 fold (v/v) in isotonic buffer (Pommer, M. S., et al., Dielectrophoretic separation of platelets from diluted whole blood in microfluidic channels. Electrophoresis, 2008. 29(6): p. 1213-8) containing 8.5% w/v sucrose and 0.3% w/v dextrose until the medium conductivity reached ˜1500/cm. as measured by a Jenway 4520 conductivity meter (Jenway, Staffordshire, UK). 50 μl of the diluted platelets sample were pipetted into the fluid chamber of the microelectrode chip. An alternating electric current in a sine wave pattern was generated across the microelectrodes using a function generator (332220A, Agilent, CA,) connected to a wideband power amplifier (7600M, Krohn-hite, MA). The amplitude of applied voltage was monitor via digital oscilloscope (GDS-1102, GW Instek, CA). The sample chip was imaged via fluorescence microscopy (Eclipse E800, 100× oil, Nikon, N.Y.), images were captured via CCD (Sensicam 12bt CCD camera, Cooke Corporation, MI), processed and quantified using NIH Image J software.
In the studies, platelet deformations under sequential increase of applied voltage, from 0 to 90Vpk-pk at 15V steps, were measured at a frequency of 1 MHz and the result is shown in FIG. 4A. […] Images of deformed platelets were captured in a duration ˜5s.

Substance: thrombin
- P-selectin expression, averaged fluorescence intensity level (platelets [1]): 1526.15±75.04
- Platelet activation level (PAS assay) (platelets [2]): 24.7%

Substance: paraformaldehyde
- Decrease in deformation compared to untreated platelets (platelets [3]; 0.4% paraformaldehyde, 90Vpk-pk applied voltage, p-value=0.0002): 2.75 times
- Young's modulus of platelets (slope of linear fitted stress-deformation curve) (platelets [3]; platelets treated by 0.4% paraformaldehyde, stress from Maxwell stress tensor simulation): 8.5+/−1.5 kPa
- Platelet deformation along the axis of maximum extension, normalized to the original length (platelets [3]; applied voltage 15 V): 0.73±1.33%
- Platelet deformation along the axis of maximum extension, normalized to the original length (platelets [3]; applied voltage 90 V): 4.90±1.98%
